Patent US10765114B2, “4-amino-6-(pyridyl and 2-substitutedphenyl)-picolinates and 6-amino-2-(pyridyl and 2-substitutedphenyl)-pyrimidine-4-carboxylates and their use as herbicides” (Dow AgroSciences LLC, priority 2013, dated 2020)
Like-named read-outs stand apart in the source and are kept apart here.

Experiments:
[1] = tested on: Key Broadleaf Weed and Crop Species; test: Post-Emergent Test II (Table 5); assay type: in vivo; settings: post-emergence, 336 h; for pest or weed control at 70 g/ha: application rate 70 (kg ai/ha; footnote: g ai/ha); for pest or weed control at 140 g/ha: application rate 140 (kg ai/ha; footnote: g ai/ha)
Method in brief: (§1)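 Plants at first or second true-leaf stage, grown 7-21 days in greenhouse, were sprayed post-emergence at 187 L/ha with compounds in acetone/DMSO/water/crop oil/surfactant mixture at the high rate and ½× to 1/16× dilutions. Injury scored visually after 14 days, 0 (none) to 100% (complete kill), versus untreated plants.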

[2] = tested on: Key Grass and Sedge Weeds as well as Grass Crops; test: Post-Emergent Test II (Table 6); assay type: in vivo; settings: post-emergence, 336 h, 14 days after application; for pest or weed control at 70 g/ha: 70 g ai/ha; for pest or weed control at 140 g/ha: 140 g ai/ha
Method in brief: as §1

[3] = Abutilon theophrasti, ABUTH: velvetleaf (Abutilon theophrasti), read-out: Visual Growth Reduction (%) 14 Days After Application ABUTH
[4] = Amaranthus retroflexus, AMARE: redroot pigweed (Amaranthus retroflexus), read-out: Visual Growth Reduction (%) 14 Days After Application AMARE
[5] = Brassica napus, BRSSS: oilseed rape, canola (Brassica napus), read-out: Visual Growth Reduction (%) 14 Days After Application BRSSS
[6] = Chenopodium album, CHEAL: lambsquarters (Chenopodium album), read-out: Visual Growth Reduction (%) 14 Days After Application CHEAL
[7] = Euphorbia heterophylla, EPHHL: wild poinsettia (Euphorbia heterophylla), read-out: Visual Growth Reduction (%) 14 Days After Application EPHHL
[8] = Helianthus annuus, HELAN: sunflower (Helianthus annuus), read-out: Visual Growth Reduction (%) 14 Days After Application HELAN
[9] = Viola tricolor, VIOTR: wild pansy (Viola tricolor), read-out: Visual Growth Reduction (%) 14 Days After Application VIOTR
[10] = CYPSS, read-out: Visual Growth Reduction (%) 14 Days After Application CYPSS
[11] = DIGSA: crabgrass (Digitaria sanguinalis), read-out: Visual Growth Reduction (%) 14 Days After Application DIGSA
[12] = ECHSS, read-out: Visual Growth Reduction (%) 14 Days After Application ECHSS
[13] = ORYSS (crop), read-out: Visual Growth Reduction (%) 14 Days After Application ORYSS
[14] = SETFA: giant foxtail (Setaria faberi), read-out: Visual Growth Reduction (%) 14 Days After Application SETFA
[15] = SORVU: grain sorghum (Sorghum vulgare), read-out: Visual Growth Reduction (%) 14 Days After Application SORVU
[16] = TRZSS (crop), read-out: Visual Growth Reduction (%) 14 Days After Application TRZSS
[17] = ZEAMX: maize, corn (Zea mays), read-out: Visual Growth Reduction (%) 14 Days After Application ZEAMX

Compound | pest or weed control at 70 g/ha [1, 3] | pest or weed control at 140 g/ha [1, 3] | pest or weed control at 70 g/ha [1, 4] | pest or weed control at 140 g/ha [1, 4] | pest or weed control at 70 g/ha [1, 5] | pest or weed control at 140 g/ha [1, 5] | pest or weed control at 70 g/ha [1, 6] | pest or weed control at 140 g/ha [1, 6] | pest or weed control at 70 g/ha [1, 7] | pest or weed control at 140 g/ha [1, 7] | pest or weed control at 70 g/ha [1, 8] | pest or weed control at 140 g/ha [1, 8] | pest or weed control at 70 g/ha [1, 9] | pest or weed control at 140 g/ha [1, 9] | pest or weed control at 70 g/ha [2, 10] | pest or weed control at 140 g/ha [2, 10] | pest or weed control at 70 g/ha [2, 11] | pest or weed control at 140 g/ha [2, 11] | pest or weed control at 70 g/ha [2, 12] | pest or weed control at 140 g/ha [2, 12] | further results
COC(=O)c1nc(-c2ccc(C(F)(F)F)nc2)cc(N)c1Cl [Compound 4] | 75 to 84% | 75 to 84% | 85 to 94% | 95 to 100% | 30 to 44% | 60 to 74% | 75 to 84% | 85 to 94% | 75 to 84% | 85 to 94% | 60 to 74% | 75 to 84% | 0 to 29% | 0 to 29% | 60 to 74% | 60 to 74% | 0 to 29% | 0 to 29% | 30 to 44% | 75 to 84% | pest or weed control at 70 g/ha [2, 13]: 0 to 29%; pest or weed control at 140 g/ha [2, 13]: 0 to 29%; pest or weed control at 70 g/ha [2, 14]: 0 to 29%; pest or weed control at 140 g/ha [2, 14]: 0 to 29%; pest or weed control at 70 g/ha [2, 15]: 45 to 59%; pest or weed control at 140 g/ha [2, 15]: 60 to 74%; pest or weed control at 70 g/ha [2, 16]: 0 to 29%; pest or weed control at 140 g/ha [2, 16]: 0 to 29%; pest or weed control at 70 g/ha [2, 17]: 0 to 29%; pest or weed control at 140 g/ha [2, 17]: 0 to 29%
Nc1cc(-c2ccc(Cl)c(Cl)c2Cl)nc(C(=O)O)c1Cl [Compound 93] | 85 to 94% | 85 to 94% | 95 to 100% | 95 to 100% | 95 to 100% | 95 to 100% | 85 to 94% | 95 to 100% | 95 to 100% | 95 to 100% | 60 to 74% | 75 to 84% | 60 to 74% | 0 to 29% | 0 to 29% | 0 to 29% | 60 to 74% | 60 to 74% | 30 to 44% | 30 to 44% | pest or weed control at 70 g/ha [2, 13]: 0 to 29%; pest or weed control at 140 g/ha [2, 13]: 0 to 29%; pest or weed control at 70 g/ha [2, 14]: 0 to 29%; pest or weed control at 140 g/ha [2, 14]: 0 to 29%; pest or weed control at 70 g/ha [2, 15]: 0 to 29%; pest or weed control at 140 g/ha [2, 15]: 0 to 29%; pest or weed control at 70 g/ha [2, 16]: 45 to 59%; pest or weed control at 140 g/ha [2, 16]: 60 to 74%; pest or weed control at 70 g/ha [2, 17]: 30 to 44%; pest or weed control at 140 g/ha [2, 17]: 30 to 44%
COC(=O)c1nc(-c2ccc(Cl)c(F)c2OC)c(F)c(N)c1Cl [Compound 39, methyl 4-amino-3-chloro-6-(4-chloro-3-fluoro-2-methoxyphenyl)-5-fluoropicolinate] | 95 to 100% | 95 to 100% | 95 to 100% | 95 to 100% | 95 to 100% | 95 to 100% | 0 to 29% | 0 to 29% | 45 to 59% | 45 to 59% | 95 to 100% | 95 to 100% | 95 to 100% | 95 to 100% | 45 to 59% | 95 to 100% | 0 to 29% | 0 to 29% | 0 to 29% | 0 to 29% | pest or weed control at 70 g/ha [2, 13]: 0 to 29%; pest or weed control at 140 g/ha [2, 13]: 0 to 29%; pest or weed control at 70 g/ha [2, 14]: 0 to 29%; pest or weed control at 140 g/ha [2, 14]: 75 to 84%; pest or weed control at 70 g/ha [2, 15]: 0 to 29%; pest or weed control at 140 g/ha [2, 15]: 0 to 29%; pest or weed control at 70 g/ha [2, 16]: 30 to 44%; pest or weed control at 140 g/ha [2, 16]: 30 to 44%; pest or weed control at 70 g/ha [2, 17]: 0 to 29%; pest or weed control at 140 g/ha [2, 17]: 60 to 74%
